Experimental findings from ChEMBL document CHEMBL3112430, “Biological evaluation of new antitumor taxoids: alteration of substitution at the C-7 and C-10 of docetaxel” (2014) are described below.

What all share (format): functional
In experiment [1] the test system is A549. As to the kind of experiment: Growth inhibition of human A549 cells by MTT assay.
Experiment [2] can be described thus: (§1) Growth inhibition of human HT1080 cells by MTT assay. The following applies: HT-1080.
A short description of experiment [3]: Growth inhibition of human Bel7402 cells by MTT assay. Particulars: Bel-7402.
A further experiment relates to DU-145. The experiment in a line: Growth inhibition of human DU145 cells by MTT assay.
Experiment [4] can be described thus: Growth inhibition of human U937 cells by MTT assay. The following applies: U-937.
The test system of a further experiment is MOLT-4. As to the kind of experiment: Growth inhibition of human MOLT4 cells by MTT assay.
Experiment [5] is described as follows: Growth inhibition of human PANC1 cells by MTT assay. Particulars: PANC-1.
The subject of another experiment is MCF7. As to the kind of experiment: Growth inhibition of human MCF7 cells by MTT assay.
The test system of a further experiment is HeLa. The experiment in a line: Growth inhibition of human HeLa cells by MTT assay.
A further experiment deals with Huh-7. The experiment in a line: Growth inhibition of human HuH7 cells by MTT assay.
Experiment [6] in a line: Growth inhibition of human BGC823 cells by MTT assay. The following applies: BGC-823.
The nature of experiment [7]: Growth inhibition of human SGC7901 cells by MTT assay. Particulars: SGC-7901.
The next experiment has as its system K562. As to the kind of experiment: Growth inhibition of human K562 cells by MTT assay.
For a further experiment, the system named is A-431. As to the kind of experiment: Growth inhibition of human A431 cells by MTT assay.
For the next experiment, the system named is HL-60. As to the kind of experiment: Growth inhibition of human HL60 cells by MTT assay.
The next experiment deals with HT-1080. The description is as §1.
Experiment [8] relates to A549. As to the kind of experiment: Ratio of taxol GI50 to compound GI50 for human A549 cells.

SMILES strings stand for the structures. Activity calls are given as the source filed them. No cut-off for these calls is given here.

With `COCCO[C@H]1C(=O)[C@]2(C)[C@@H](OCCOC)C[C@H]3OC[C@@]3(OC(C)=O)[C@H]2[C@H](OC(=O)c2ccccc2)[C@]2(O)C[C@H](OC(=O)[C@H](O)[C@@H](NC(=O)OC(C)(C)C)c3ccccc3)C(C)=C1C2(C)C`, the GI50 in the experiment on A549 [1] came out at 3.1 nM; in experiment [2], 480 nM; in experiment [3] it was 57.3 nM; in the experiment with DU-145, 982 nM; in experiment [4], 38.8 nM; in the experiment on MOLT-4, 749 nM. Further, the GI50 in [5] came to 295 nM; in the experiment with MCF7 it was 345 nM; in the experiment on HeLa, 407 nM; with Huh-7, 227 nM; in [6], 2 nM; in experiment [7] it was 68.2 nM. Also, the GI50 came to 936 nM in the experiment with K562, 6.73 nM in the experiment on A-431 and 57.9 nM in the experiment on HL-60.
Consider `CC(=O)O[C@H]1C(=O)[C@@]2(C)[C@H]([C@H](OC(=O)c3ccccc3)[C@]3(O)C[C@H](OC(=O)[C@H](O)[C@@H](NC(=O)c4ccccc4)c4ccccc4)C(C)=C1C3(C)C)[C@]1(OC(C)=O)CO[C@@H]1C[C@@H]2O` [PACLITAXEL], for which the GI50 was found to be 18.7 nM with A549 [1]; 3.89 nM in experiment [2]; 1.79 nM in [3]; 5.57 nM in the experiment on DU-145; 2.39 nM in experiment [4]; 2.23 nM with MOLT-4. Besides, the GI50 in experiment [5] stood at 2.41 nM; in the experiment with MCF7, 1.29 nM; with HeLa it was 3.21 nM; with Huh-7, 207 nM; in experiment [6] it was 3.6 nM; in experiment [7], 3.09 nM. The GI50 was found to be 7.01 nM in the experiment on K562 and 2.35 nM in the experiment with A-431.
Turning to `CO[C@H]1C(=O)[C@]2(C)[C@@H](OC)C[C@H]3OC[C@@]3(OC(C)=O)[C@H]2[C@H](OC(=O)c2ccccc2)[C@]2(O)C[C@H](OC(=O)[C@H](O)[C@@H](NC(=O)OC(C)(C)C)c3ccccc3)C(C)=C1C2(C)C` [CABAZITAXEL], the GI50 with A549 [1] came to 1.48 nM; in [2], 1.41 nM; with DU-145, 1.43 nM; in [4] it was 0.539 nM; in experiment [5] it was 1.28 nM; in the experiment with MCF7, 1.19 nM. Also, the GI50 in the experiment with HeLa was determined as 1.8 nM; in experiment [6], 467 nM; in experiment [7], 0.355 nM; with K562, 4.19 nM; with A-431, 1.48 nM; in the experiment on HL-60, 4.74 nM.
In the case of `COCO[C@H]1C(=O)[C@]2(C)[C@@H](OCOC)C[C@H]3OC[C@@]3(OC(C)=O)[C@H]2[C@H](OC(=O)c2ccccc2)[C@]2(O)C[C@H](OC(=O)[C@H](O)[C@@H](NC(=O)OC(C)(C)C)c3ccccc3)C(C)=C1C2(C)C`, the GI50 in the experiment with A549 [1] turned out to be 563 nM; in experiment [3], 661 nM; in the experiment on DU-145 it was 2.09 nM; in experiment [4] it was 6.15 nM; in [5] it was 1.89 nM; in the experiment with MCF7 it was 615 nM. Also, the GI50 in the experiment with HeLa amounted to 1.24 nM; in the experiment on Huh-7, 257 nM; in experiment [6] it was 80.5 nM; in experiment [7], 966 nM; in the experiment with A-431, 275 nM; in the experiment with HL-60, 1230 nM. Moreover, the GI50 entry in the experiment on HT-1080 and in the experiment with K562 was “inactive” throughout.
On to `CC(=O)O[C@@]12CO[C@@H]1C[C@H](OCCO)[C@@]1(C)C(=O)[C@H](OCCO)C3=C(C)[C@@H](OC(=O)[C@H](O)[C@@H](NC(=O)OC(C)(C)C)c4ccccc4)C[C@@](O)([C@@H](OC(=O)c4ccccc4)[C@H]21)C3(C)C`, for which the GI50 in the experiment on A549 [1] amounted to 6.76 nM; in experiment [2], 472 nM; in [3], 56 nM; with DU-145, 413 nM; in experiment [4], 7.41 nM; in experiment [5], 296 nM. For the same compound, the GI50 in the experiment with MCF7 was determined as 7.41 nM; in the experiment on HeLa, 6.65 nM; with Huh-7, 113 nM; in experiment [6], 128 nM; in experiment [7], 92.5 nM; with K562 it was 470 nM. Further, the results for the GI50 in the experiment on A-431 and in the experiment on HL-60 were 38.5 nM and 118 nM, respectively.
On to `CC(=O)O[C@@]12CO[C@@H]1C[C@H](OC(=O)C(C)(CO)CO)[C@@]1(C)C(=O)[C@H](OC(=O)C(C)(CO)CO)C3=C(C)[C@@H](OC(=O)[C@H](O)[C@@H](NC(=O)OC(C)(C)C)c4ccccc4)C[C@@](O)([C@@H](OC(=O)c4ccccc4)[C@H]21)C3(C)C`, for which the GI50 in the experiment with A549 [1] was 159 nM; in [2], 166 nM; in experiment [3], 11.9 nM; in the experiment on DU-145, 65.1 nM; in experiment [4], 198 nM; in the experiment on MOLT-4, 263 nM. Besides, the concentration for 50% growth inhibition (GI50) amounted to 170 nM in experiment [5]; 130 nM with MCF7; 225 nM with HeLa; 104 nM in the experiment with Huh-7; 984 nM in experiment [6]; 558 nM in [7]. For the same compound, the GI50 in the experiment on K562 came out at 554 nM; in the experiment with A-431 it was 1.25 nM; in the experiment on HL-60 it was 376 nM.
Turning to `CCOCCO[C@H]1C(=O)[C@]2(C)[C@@H](OCCOCC)C[C@H]3OC[C@@]3(OC(C)=O)[C@H]2[C@H](OC(=O)c2ccccc2)[C@]2(O)C[C@H](OC(=O)[C@H](O)[C@@H](NC(=O)OC(C)(C)C)c3ccccc3)C(C)=C1C2(C)C`, the GI50 in the experiment on A549 [1] came to 1.94 nM; in experiment [2] it was 2.83 nM; in experiment [3], 1.56 nM; with DU-145 it was 3.69 nM; in experiment [4], 1.95 nM; in the experiment on MOLT-4, 268 nM. For the same compound, the GI50 in [5] came out at 150 nM; with MCF7, 1.19 nM; with HeLa it was 2.53 nM; in the experiment on Huh-7, 87.5 nM; in experiment [6], 816 nM; in experiment [7], 2.27 nM. Further, the GI50 in the experiment with K562 turned out to be 483 nM; in the experiment on A-431 it was 2.27 nM; with HL-60, 63.7 nM. The RatioGI50 with A549 [8] worked out at 9.
